One data set concerns sarcoma 180. Description: solid tumor induced by sarcoma 180 tumor cells. The following applies: for tumor weight: control 7.1±0.1; for tumor weight / tumor volume: mean±S.E.M.; for tumor volume: control 8804±465.3. The data set is classed as in vivo, ICR mice. As for the experimental part: For solid tumor development, ICR mice were injected with 0.1 ml of sarcoma 180 suspensions into the right hind limbs. After 6 days of tumor transplantation, mice randomized into six groups were injected i.p. with AS (50 and 100 mg/kg) and 5-FU (25 mg/kg) once a day for 9 days. Eight days later after treatment, animals were sacrificed by cervical […], and solid tumors were removed and weighed.

The subject of data set [1] is sarcoma 180 ascitic tumor. Description: survival time of mice with sarcoma 180 ascitic tumor. Format: in vivo.
Data set [2] deals with chick embryonic angiogenesis. Description: chorioallantoic membrane (CAM) assay. The conditions noted are these: for Eggs showing antiangiogenesis: avascular zone exceeded 3 mm. The data set is classed as in vivo, chicken. The procedure: The effect of acharan sulfate on the inhibition of angiogenesis was performed using the choroioallantoic membrane (CAM) assay. These assays essentially followed previously published procedures (Tanaka et al, 1986; Oikawa et al., 1990). In brief, fertilized chicken eggs were incubated in the constant humidified breeder at 37° C. On the third day of incubation, about 2 ml of egg albumin were aspirated by an 18-gauge hypodermic needle, to detach the developing CAM from the shell. One and half days later, sample-loaded thermanox coverslips (Nunc, Naperville, Ill.) were air-dried and applied to the CAM surface for testing of angiogenesis inhibition by AS. Two days later, 1 ml of 10% fat emulsion (Intralipose) was injected into the chorioallantoic membrane and the avascular zone was observed under a dissecting microscope. Inhibition of angiogenesis was assessed when the avascular zone exceeded 3 mm. In order to abolish the possibility of contaminant in AS, the depolymerized product by heparinase II as described above was also tested for the antiangiogenic activity. The concentration of AS used in this assay was selected based on the concentration of heparin that had previously been applied in the same assay (Collen et al., 2000).
On day 4.5, CAMs were treated with different doses of AS for 2 days. The dose-response relationship for the appearance of avascular zone was determined.

Data set [3] has as its system bFGF-induced angiogenesis. Description: mouse matrigel plug assay. Format: in vivo, C57BL/6J mice. As for the experimental part:
The effect of acharan sulfate on the inhibition of angiogenesis was also evaluated in the matrigel plug assay. This assay was performed as previously described (Passaniti et al., 1992). Acharan sulfate, dissolved in water, bFGF and heparin, dissolved in 0.1% bovine serum albumen (BSA)/phosphate buffered saline (PBS) were mixed with liquid matrigel (Collaborative Biomedical Products, Bedford, Mass.) in proportions not exceeding 1% of the total volume of matrigel. A mixture of 0.5 ml matrigel with AS or vehicle was injected subcutaneously into C57BL/6J mice. After injection, the matrigel rapidly formed a plug. […] The amount of hemoglobin (Hb) inside the matrigel was measured using the Drabkin method (Drabkin and Austin, 1932) and Drabkin reagent 525 for the quantitation of blood vessel formation. The concentration of Hb was calculated based on a Hb standard measured simultaneously.
To evaluate the effect of AS on ongoing angiogenic process in the mouse matrigel plug assay matrigel, heparin (10 units/500 μl), and bFGF (100 ng/500 μl) with or without AS were injected s.c. into C57BL/6 mice. […] We next measured the hemoglobin content inside the matrigel plugs to quantify the angiogenesis. Whereas bFGF and heparin increased Hb concentration to 11.8 g/dl and the Hb concentration inside the control was 0.3 g/dl, AS decreased the heparin and bFGF-elevated Hb quantity to about 8.6 g/dl (FIG. 3). […]

Data set [4] concerns calf pulmonary artery endothelial (CPAE) cells. Description: CPAE cell proliferation by MTT assay. Format: cell-based. The following applies: for growth inhibition: 3-day treatment. The procedure:
The effect of acharan sulfate on in vitro cell proliferation was carried out using calf pulmonary artery endothelial (CPAE) cells as follows.
CPAE cells were seeded in a 24 well plate at a cell density of 10^5 cells/well in 90% RPMI and 10% FBS. After 24 h incubation, the cells were treated with various concentrations of AS. Three days later, new media and MTT solution were added to each well. After incubation at 37° C. for 4 h, the absorbance of treated cells at 540 nm was compared to that of control cells.

Data set [5] has as its system Lewis lung carcinoma cells. Description: tumor growth in Lewis lung carcinoma-bearing mice. Format: in vivo, C57BL/6 mice. The following applies: for tumor volume: saline 4534.4; for mean tumor weight reduction: day 21, vs saline; for tumor weight: day 21, saline 4.5±0.7. The procedure: Male C57BL/6 mice were inoculated s.c. in the back with LLC cells (1×10^6/animal) on day 0. After tumor volume was at least 60-100 mm^3, AS was administered into the subcutaneous region near the tumor mass at two doses of 10 and 30 mg/kg for 15 days. The size of tumors in all groups was measured using a dial-caliper and the volume of tumors was determined using the formula width^2×length×0.52 (Voest et al., 1995; Cao et al., 1995). The effects of AS on tumor growth and host survival were also measured by evaluating tumor volumes, tumor weights and percentage increase in lifespan of tumor hosts, respectively (Oguchi et al., 1987; Kusumoto, 1991). For calculating the survival time, mice were inoculated i.p. with […] sarcoma 180 cells/mouse on day 0 and the treatment with two doses of AS (50 and 100 mg/kg, i.p.) were started 24 h after inoculation for nine consecutive days. The control group was treated with saline. Median survival time (MST) for each group (n=7) was observed and the antitumor activity of the test compounds were compared with that of control group by measuring the increase in lifespan.

The subject of the next data set is matrix metalloprotease. Description: antiprotease activity. Format: biochemical.
For data set [6], the system named is Lewis lung carcinoma cells. Description: tumor growth in Lewis lung carcinoma-bearing mice. The data set is classed as in vivo, C57BL/6 mice. The conditions noted are these: for tumor growth inhibited (volume): vs saline.
The target in the next data set is bFGF (Homo sapiens, UniProt P09038). The following applies: in vitro (Wang et al., 1997); cited from earlier work.
Sequence of bFGF (P09038 143-288, species assumed): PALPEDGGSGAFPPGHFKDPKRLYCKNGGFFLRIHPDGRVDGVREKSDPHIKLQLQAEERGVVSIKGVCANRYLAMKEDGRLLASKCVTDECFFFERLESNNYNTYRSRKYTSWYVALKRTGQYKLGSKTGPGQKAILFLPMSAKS
[7] abbreviates: 10 mg/kg daily s.c., end of 15-day treatment.
Setting [8] is: 50 mg/kg i.p. once a day for 9 days, vs control.
Setting [9] is: 50 mg/kg i.p. once a day for 9 days.

The source of these data is patent US20050075312A1, “Antitumor inhibitors and use thereof” (priority 2003, published 2005).

As a reminder, the % inhibition is the drop in the measured response relative to a control, in per cent.

Values joined by “and” are separate entries in the source; they are usually repeats but may differ in a detail not shown here. Identical values can stand only once.

Turning to `O=c1[nH]cc(F)c(=O)[nH]1` [5-FU, 5-fluorouracil], in the data set with sarcoma 180 (25 mg/kg i.p. once a day for 9 days, vs control), the tumor weight inhibited was 75.1% and 55.8%. Further, the tumor weight with sarcoma 180 (25 mg/kg i.p. once a day for 9 days) was 1.8 ± 0.3 g and 3.1 ± 0.3 g. The tumor volume decreased with sarcoma 180 (5-FU 25 mg/kg i.p. once a day for 9 days, vs control) came out at 82.1%. Besides, in the data set with sarcoma 180 (5-FU 25 mg/kg i.p. once a day for 9 days), the tumor volume amounted to 1572±201.5 mm^3. The “median survival time (MST)” value in data set [1] (25 mg/kg, control 22.4±2.2) was 42.8 ± 4.2 days.

Regarding Acharan sulfate [AS], the “% inhibition” value in data set [2] (5 μg/egg) was 48.3%; in data set [2] (10 μg/egg) it was 55.6%. The Eggs showing antiangiogenesis amounted to 14 in data set [2] (5 μg/egg, 29 eggs tested) and 15 in data set [2] (10 μg/egg, 27 eggs tested). In [3] (fifty micrograms of AS in combination with bFGF and heparin), the “vessel induction in matrigel” value is “slightly prevented the vessel induction”. Also, the “Hb concentration inside the matrigel plug” value in [3] (fifty micrograms of AS with bFGF and heparin, s.c., seven days, bFGF and heparin alone 11.8, control 0.3) is on record as “about 8.6 g/dl”. For the same compound, the growth inhibition in data set [4] (1 μg/ml) worked out at 15.2%; in data set [4] (10 μg/ml), 24.9%. The “cytotoxic effect on CPAE cell viability” value in data set [4] (increasing concentrations, data not shown) was “no cytotoxic effect”. Also, the tumor volume in data set [5] (setting [7]) is given as 3049.2 mm^3; in data set [5] (30 mg/kg daily s.c., end of 15-day treatment), 2809.3 mm^3; in the data set with sarcoma 180 (setting [9]), 4799±345.2 mm^3. Moreover, the “mean tumor weight reduction” value in data set [5] (10 mg/kg s.c.) worked out at 37.8%; in data set [5] (30 mg/kg s.c.), 48.9%. The tumor weight was 2.8 ± 0.2 g in data set [5] (10 mg/kg s.c.), 2.3 ± 0.2 g in data set [5] (30 mg/kg s.c.) and 4.3 ± 0.1 g in the data set on sarcoma 180 (setting [9]). The “tumor growth inhibited (volume)” value in data set [5] (30 mg/kg daily s.c., end of 15-day treatment, vs saline) stood at 38.1%; in data set [6] (setting [7]), 32.8%. In data set [5] (10 and 30 mg/kg s.c., 15 days), the “body weight of mice over the course of treatment” value is on record as “did not lose weight”. In the data set on sarcoma 180 (setting [8]), this compound showed a tumor volume inhibited of 45.0%. In the data set with sarcoma 180 (setting [8]), this compound gave a tumor weight inhibited of 39.6%. Besides, the “lifespan increased against the control group” value in data set [1] (30 mg/kg/day for 9 consecutive days) is on record as 1.5 fold. Further, the median survival time in data set [1] (30 mg/kg/day for 9 consecutive days, control 22.4±2.2) was found to be 34.3 ± 2.6 days; in data set [1] (50 mg/kg/day for 9 consecutive days, control 22.4±2.2) it was 40.6 ± 3.1 days. Moreover, the “lifespan prolonged against the control group” value in [1] (50 mg/kg/day for 9 consecutive days) worked out at 1.8 fold. In addition, the antiprotease activity entry in the data set with matrix metalloprotease was “no detectable antiprotease activity”. The “effect on heparin's bFGF mitogenicity” value at bFGF was “interfered with heparin's bFGF mitogenicity in vitro”.

`COc1cccc2c1C(=O)c1c(O)c3c(c(O)c1C2=O)C[C@@](O)(C(=O)CO)C[C@@H]3O[C@H]1C[C@H](N)[C@H](O)[C@H](C)O1` [Doxorubicin]: in [6] (10 mg/kg i.v. every five day, compared with control mice), the “loss of weight of treated mice” value is “marked”. The tumor weight reduction in [6] (10 mg/kg i.v. every five day, day 21, vs saline) is on record as 68.0%. Also, the tumor weight in data set [6] (10 mg/kg i.v. every five day, day 21, saline 4.5±0.7) worked out at 1.6 ± 0.2 g. In data set [6] (10 mg/kg i.v. every five day, over the treatment), the injection area result is given as “significantly damaged”. The “tumor growth inhibited (volume)” value in data set [6] (10 mg/kg i.v. every five day) is 62.0%. In [6] (10 mg/kg i.v. every five day, saline 4534.4), the tumor volume is recorded as 1721.6 mm^3.

Consider `CC1=C(/C=C/C(C)=C/C=C/C(C)=C/C(=O)O)C(C)(C)CCC1` [Retinoic acid, all-trans-retinoic acid, reference compound], for which, in data set [2] (1 μg/egg), the “% inhibition” value was 80%. This compound also came in with an Eggs showing antiangiogenesis in data set [2] (1 μg/egg, 25 eggs tested) of 20.
